Literature values as cited in US10376520B2, “Methods for the treatment of cardiovascular disorders” (Galapagos NV, priority 2015, dated 2019).
Read-outs that look alike come from different tables or passages of the source.

Columns and labels:
RA patient = conditions: 10 mg bid for 6 weeks in RA patient; cited from earlier work
patients = conditions: first 3 months of exposure in the controlled clinical trials, cited from earlier work

In the case of `C[C@@H]1CCN(C(=O)CC#N)C[C@@H]1N(C)c1ncnc2[nH]ccc12` [Tofacitinib], the “atherogenic index before and after treatment (unchanged)” value (RA patient) is given as “about 3.5”, the “mean [HDL] increased by” value (patients; 5 mg twice daily arm) is given as 10% and the “mean [LDL] increased by” value (patients; 5 mg twice daily arm) is given as 15%. For the same compound, the “mean [HDL] increased by” value (patients; 10 mg twice daily arm) was 12%, the “mean [LDL] increased by” value (patients; 10 mg twice daily arm) was 19% and the “mean [LDL]/[HDL] ratios” value (patients) was “essentially unchanged”.
